The molecules below were run on whole cells (assay: Oxygen consumption rate (OCR) in whole cells, Seahorse XF-24 Flux Analyzer). Settings: binned EC50 values; increase in oxygen consumption rate in whole cells.
Assay type: cell-based
Protocol: Biological activities of the compounds synthesized is determined by determining increase in oxygen consumption rate (OCR).
OCR is measured using a Seahorse XF-24 Flux Analyzer (Seahorse Biosciences, North Billerica, MA). NMuLi, C2C12, and L6 cells are seeded in a Seahorse 24-well tissue culture plate at a density of 3.5×10^4 cells/well, isolated cardiomyocytes at a density of 4×10^4 cells/well, and human primary fibroblasts at a density of 1.1×10^4 cells/well. The cells are then allowed to adhere for 24 h. […] Compounds are injected during the assay and OCR is measured using 2 min measurement periods.
2-3 wells are used per condition and averaged over three plates (n=6-9). Statistical significance is determined by two-way ANOVA with Bonferroni's posttest.

| Compound | EC50 |
| --- | --- |
| Fc1cccc(Nc2nc3[nH]c(C(F)(F)F)nc3nc2Nc2ccccc2F)c1 [Compound 12o, N^5-(2-fluorophenyl)-N^6-(3-fluorophenyl)-2-(trifluoromethyl)-1H-imidazo[4,5-b]pyrazine-5,6-diamine] | 5 to 20 µM |
| CCOc1cccc(Nc2nc3nonc3nc2Nc2ccccc2F)c1 [Compound 4n, N^5-(3-ethoxyphenyl)-N^6-(2-fluorophenyl)-[1,2,5]oxadiazolo[3,4-b]pyrazine-5,6-diamine] | < 5 µM |
| CCOc1ccc(Nc2nc3nonc3nc2Nc2ccccc2F)cc1 [Compound 4o, N^5-(4-ethoxyphenyl)-N^6-(2-fluorophenyl)-[1,2,5]oxadiazolo[3,4-b]pyrazine-5,6-diamine] | < 5 µM |
| Fc1ccccc1Nc1nc2nonc2nc1Nc1cccc(C(F)(F)F)c1 [Compound 4v, N^5-(2-fluorophenyl)-N^6-(3-(trifluoromethyl)phenyl)-[1,2,5]oxadiazolo[3,4-b]pyrazine-5,6-diamine] | < 5 µM |
| CCCNc1nc2nonc2nc1Nc1ccccc1F [Compound 7c, N^5-(2-fluorophenyl)-N^6-propyl-[1,2,5]oxadiazolo[3,4-b]pyrazine-5,6-diamine] | 5 to 20 µM |
| COc1cccc(Nc2nc3nonc3nc2Nc2ccccc2F)c1 [Compound 4k, N^5-(2-fluorophenyl)-N^6-(3-methoxyphenyl)-[1,2,5]oxadiazolo[3,4-b]pyrazine-5,6-diamine] | < 5 µM |
| Fc1c(Nc2nc3nc(C(F)(F)F)[nH]c3nc2Nc2cccc(C(F)(F)F)c2F)cccc1C(F)(F)F [Compound 12e, N^5,N^6-bis(2-fluoro-3-(trifluoromethyl)phenyl)-2-(trifluoromethyl)-1H-imidazo[4,5-b]pyrazine-5,6-diamine] | 5 to 20 µM |
| Fc1ccccc1Nc1nc2nonc2nc1Nc1cccc(F)c1F [Compound 4e, N^5-(2,3-difluorophenyl)-N^6-(2-fluorophenyl)-[1,2,5]oxadiazolo[3,4-b]pyrazine-5,6-diamine] | < 5 µM |
| Fc1ccccc1Nc1nc2nc(C(F)(F)F)[nH]c2nc1Nc1cccc(C(F)(F)F)c1F [Compound 12t, N^5-(2-fluorophenyl)-N^6-(2-fluoro-3-(trifluoromethyl)phenyl)-2-(trifluoromethyl)-1H-imidazo[4,5-b]pyrazine-5,6-diamine] | < 5 µM |
| Fc1ccccc1Nc1nc2nsnc2nc1Nc1ccccc1F [Compound 10, N^5,N^6-bis(2-fluorophenyl)-[1,2,5]thiadiazolo[3,4-b]pyrazine-5,6-diamine] | 5 to 20 µM |
| Cn1c(C(F)(F)F)nc2nc(Nc3ccc(C(F)(F)F)cc3F)c(Nc3ccc(C(F)(F)F)cc3F)nc21 [Compound 13g, N^5,N^6-bis(2-fluoro-4-(trifluoromethyl)phenyl)-1-methyl-2-(trifluoromethyl)-imidazo[4,5-b]pyrazine-5,6-diamine] | < 5 µM |
| Fc1ccccc1Nc1nc2nonc2nc1NCCC(F)(F)F [Compound 7d, N^5-(2-fluorophenyl)-N^6-(3,3,3-trifluoropropyl)-[1,2,5]oxadiazolo[3,4-b]pyrazine-5,6-diamine] | > 20 µM |
| Fc1ccc(Nc2nc3nonc3nc2Nc2ccccc2F)cc1 [Compound 4d, N^5-(2-fluorophenyl)-N^6-(4-fluorophenyl)-[1,2,5]oxadiazolo[3,4-b]pyrazine-5,6-diamine] | < 5 µM |
| COC(=O)n1c(C(F)(F)F)nc2nc(Nc3ccccc3F)c(Nc3ccccc3F)nc21 [Compound 14a, Methyl 5,6-bis((2-fluorophenyl)amino)-2-(trifluoromethyl)-imidazo[4,5-b]pyrazine-1-carboxylate] | 5 to 20 µM |
| COc1cccc(Nc2nc3nonc3nc2Nc2cccc(OC)c2)c1 [Compound 3e, N^5,N^6-bis(3-methoxyphenyl)-[1,2,5]oxadiazolo[3,4-b]pyrazine-5,6-diamine] | > 20 µM |
| Cn1c(C(F)(F)F)nc2nc(Nc3cccc(C(F)(F)F)c3F)c(Nc3cccc(C(F)(F)F)c3F)nc21 [Compound 13e, N^5,N^6-bis(2-fluoro-3-(trifluoromethyl)phenyl)-1-methyl-2-(trifluoromethyl)-imidazo[4,5-b]pyrazine-5,6-diamine] | 5 to 20 µM |
| Fc1ccccc1Nc1nc2nonc2nc1Nc1ccccc1OC(F)(F)F [Compound 4q, N^5-(2-fluorophenyl)-N^6-(2-(trifluoromethoxy)phenyl)-[1,2,5]oxadiazolo[3,4-b]pyrazine-5,6-diamine] | < 5 µM |
| Cn1c(C(F)(F)F)nc2nc(Nc3cc(F)cc(F)c3)c(Nc3cc(F)cc(F)c3)nc21 [Compound 13i, N^5,N^6-bis(3,5-difluorophenyl)-1-methyl-2-(trifluoromethyl)-imidazo[4,5-b]pyrazine-5,6-diamine] | 5 to 20 µM |
| Fc1cccc(Nc2nc3nc(C(F)(F)F)[nH]c3nc2Nc2cccc(F)c2F)c1F [Compound 12j, N^5,N^6-bis(2,3-difluorophenyl)-2-(trifluoromethyl)-1H-imidazo[4,5-b]pyrazine-5,6-diamine] | < 5 µM |

| Compound | EC50 |
| --- | --- |
| O=C(Nc1ccc(Nc2nc3nonc3nc2Nc2ccccc2F)cc1)C(F)(F)F [Compound 4t, 2,2,2-Trifluoro-N-(4-((6-((2-fluorophenyl)amino)-[1,2,5]oxadiazolo[3,4-b]pyrazin-5-yl)amino)phenyl)acetamide] | < 5 µM |
| Cc1ccc(Nc2nc3nonc3nc2Nc2ccc(C)cc2)cc1 [Compound 3c, N^5,N^6-di-p-tolyl-[1,2,5]oxadiazolo[3,4-b]pyrazine-5,6-diamine] | 5 to 20 µM |
| Cc1ccc(Nc2nc3nc(C(F)(F)F)n(C)c3nc2Nc2ccc(C)cc2)cc1 [Compound 13k, 1-Methyl-N^5,N^6-di-p-tolyl-2-(trifluoromethyl)-imidazo[4,5-b]pyrazine-5,6-diamine] | > 20 µM |
| Cc1ccc(Nc2nc3[nH]c(C(F)(F)F)nc3nc2Nc2ccccc2F)cc1 [Compound 12u, N^5-(2-fluorophenyl)-N^6-(p-tolyl)-2-(trifluoromethyl)-1H-imidazo[4,5-b]pyrazine-5,6-diamine] | 5 to 20 µM |
| Oc1ccc(F)c(Nc2nc3nonc3nc2Nc2ccccc2F)c1 [Compound 4z, 4-Fluoro-3-((6-((2-fluorophenyl)amino)-[1,2,5]oxadiazolo[3,4-b]pyrazin-5-yl)amino)phenol] | > 20 µM |
| CCCNc1nc2c(nc1Nc1ccccc1F)nc(C(F)(F)F)n2C [Compound 13w, 1-Methyl-N^5-(2-fluorophenyl)-N^6-propyl-2-(trifluoromethyl)-imidazo[4,5-b]pyrazine-5,6-diamine] | > 20 µM |
| Fc1cc(C(F)(F)F)ccc1Nc1nc2nc(C(F)(F)F)[nH]c2nc1Nc1ccc(C(F)(F)F)cc1F [Compound 12g, N^5,N^6-bis(2-fluoro-4-(trifluoromethyl)phenyl)-2-(trifluoromethyl)-1H-imidazo[4,5-b]pyrazine-5,6-diamine] | < 5 µM |
| Fc1ccccc1Nc1nc2nc(C(F)(F)F)[nH]c2nc1Nc1ccccc1F [Compound 12a, N^5,N^6-bis(2-fluorophenyl)-2-(trifluoromethyl)-1H-imidazo[4,5-b]pyrazine-5,6-diamine] | 5 to 20 µM |
| Cn1c(C(F)(F)F)nc2nc(Nc3ccc(OC(F)(F)F)c(F)c3)c(Nc3ccc(OC(F)(F)F)c(F)c3)nc21 [Compound 13f, N^5,N^6-bis(3-fluoro-4-(trifluoromethoxy)phenyl)-1-methyl-2-(trifluoromethyl)-imidazo[4,5-b]pyrazine-5,6-diamine] | 5 to 20 µM |
| Cc1ccccc1Nc1nc2nonc2nc1Nc1ccccc1C [Compound 3a, N^5,N^6-di-o-tolyl-[1,2,5]oxadiazolo[3,4-b]pyrazine-5,6-diamine] | > 20 µM |
| Cn1c(C(F)(F)F)nc2nc(Nc3ccccc3F)c(Nc3cc(C(F)(F)F)cc(C(F)(F)F)c3)nc21 [Compound 13q, 1-Methyl-N^5-(2-fluorophenyl)-N^6-(3,5-bis(trifluoromethyl)phenyl)-2-(trifluoromethyl)-imidazo[4,5-b]pyrazine-5,6-diamine] | > 20 µM |
| FC(F)(F)c1cccc(Nc2nccnc2Nc2cccc(C(F)(F)F)c2)c1 [Compound 16b, N^2,N^3-bis(3-(trifluoromethyl)phenyl)pyrazine-2,3-diamine] | < 5 µM |
| Fc1cc(Nc2nc3nc(C(F)(F)F)[nH]c3nc2Nc2ccc(C(F)(F)F)c(F)c2)ccc1C(F)(F)F [Compound 12h, N^5,N^6-bis(3-fluoro-4-(trifluoromethyl)phenyl)-2-(trifluoromethyl)-1H-imidazo[4,5-b]pyrazine-5,6-diamine] | 5 to 20 µM |
| Fc1cc(Nc2nc3nonc3nc2Nc2ccc(OC(F)(F)F)c(F)c2)ccc1OC(F)(F)F [Compound 3bb, N^5,N^6-bis(3-fluoro-4-(trifluoromethoxy)phenyl)-[1,2,5]oxadiazolo[3,4-b]pyrazine-5,6-diamine] | < 5 µM |
| Cn1c(C(F)(F)F)nc2nc(Nc3ccccc3F)c(NCCC(F)(F)F)nc21 [Compound 13x, 1-Methyl-N^5-(2-fluorophenyl)-N^6-3,3,3-trifluoropropyl-2-(trifluoromethyl)-imidazo[4,5-b]pyrazine-5,6-diamine] | > 20 µM |
| Cn1c(C(F)(F)F)nc2nc(Nc3ccccc3F)c(Nc3cccc(C(F)(F)F)c3F)nc21 [Compound 13t, 1-Methyl-N^5-(2-fluorophenyl)-N^6-(2-fluoro-3-(trifluoromethyl)phenyl)-2-(trifluoromethyl)-imidazo[4,5-b]pyrazine-5,6-diamine] | > 20 µM |
| COc1ccc(Nc2nc3[nH]c(C(F)(F)F)nc3nc2Nc2ccccc2F)cc1 [Compound 12r, N^5-(2-fluorophenyl)-N^6-(4-methoxyphenyl)-2-(trifluoromethyl)-1H-imidazo[4,5-b]pyrazine-5,6-diamine] | > 20 µM |
| Fc1ccccc1Nc1nc2nonc2nc1Nc1ccccn1 [Compound 4b, N^5-(2-fluorophenyl)-N^6-(pyridin-2-yl)-[1,2,5]oxadiazolo[3,4-b]pyrazine-5,6-diamine] | > 20 µM |
